PubChem BioAssay AID330 (DTP/NCI, 2004)
Several values for one entry are separate records, joined by “and”; a condition that tells them apart may be missing. Equal values may be shown once. Toxic doses and inconclusive results are not listed.

System: P388 leukemia ip, CD2F1 mice, survival T/C
Assay: NCI In Vivo Anticancer Drug Screen. Data for tumor model P388 Leukemia (intraperitoneal) in CD2F1 (CDF1) mice
Settings: endpoint: median survival time, higher = longer survival
In short: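 Mice carrying the transplanted tumor received test compound or vehicle. Survival was recorded in each group, and the value is the treated-group measurement divided by that of the vehicle-treated control group.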

[1] = dose: 50.0 mg/kg/injection, schedule: Q01DX009 (ip), vehicle: saline with Tween-80
[2] = dose: 100.0 mg/kg/injection, schedule: Q01DX009 (ip), vehicle: saline with Tween-80
[3] = dose: 200.0 mg/kg/injection, schedule: Q01DX009 (ip), vehicle: saline with Tween-80
[4] = dose: 50.0 mg/kg/injection, schedule: Q01DX009 (ip), vehicle: saline
[5] = dose: 100.0 mg/kg/injection, schedule: Q01DX009 (ip), vehicle: saline
[6] = dose: 200.0 mg/kg/injection, schedule: Q01DX009 (ip), vehicle: saline
[7] = dose: 50.0 mg/kg/injection, schedule: Q01DX005 (ip), vehicle: saline with Tween-80
[8] = dose: 100.0 mg/kg/injection, schedule: Q01DX005 (ip), vehicle: saline with Tween-80
[9] = dose: 200.0 mg/kg/injection, schedule: Q01DX005 (ip), vehicle: saline with Tween-80
[10] = dose: 60.0 mg/kg/injection, schedule: Q01DX005 (ip), vehicle: saline with Tween-80
[11] = dose: 120.0 mg/kg/injection, schedule: Q01DX005 (ip), vehicle: saline with Tween-80
[12] = dose: 50.0 mg/kg/injection, schedule: Q01DX005 (ip), vehicle: saline
[13] = dose: 100.0 mg/kg/injection, schedule: Q01DX005 (ip), vehicle: saline
[14] = dose: 200.0 mg/kg/injection, schedule: Q01DX005 (ip), vehicle: saline
[15] = dose: 240.0 mg/kg/injection, schedule: Q01DX005 (ip), vehicle: saline with Tween-80
[16] = dose: 50.0 mg/kg/injection, schedule: Q01DX009 (ip), vehicle: Klucel (hydroxypropylcellulose) (HPC)
[17] = dose: 100.0 mg/kg/injection, schedule: Q01DX009 (ip), vehicle: Klucel (hydroxypropylcellulose) (HPC)
[18] = dose: 12.5 mg/kg/injection, schedule: Q01DX009 (ip), vehicle: saline

O=c1ccc2cc(-c3ccncc3)cnc2[nH]1
T/C (dose: 25.0 mg/kg/injection, schedule: Q04DX002 (ip), vehicle: saline with Tween-80): 100 % of control | T/C (dose: 50.0 mg/kg/injection, schedule: Q04DX002 (ip), vehicle: saline with Tween-80): 94 % of control

COC(=O)CC(C)CC(=O)O (stereo unspecified)
T/C [1]: 100 % of control | T/C [2]: 107 % of control | T/C [3]: 100 % of control

C/C(=N\N=C(\[Se])N1CCN(c2ccccn2)CC1)c1ccccn1
T/C (dose: 12.5 mg/kg/injection, schedule: Q04DX003 (ip), vehicle: saline with Tween-80): 108 % of control | T/C (dose: 25.0 mg/kg/injection, schedule: Q04DX003 (ip), vehicle: saline with Tween-80): 109 % of control and 116 % of control | T/C (dose: 50.0 mg/kg/injection, schedule: Q04DX003 (ip), vehicle: saline with Tween-80): 113 % of control | T/C (dose: 100.0 mg/kg/injection, schedule: Q04DX003 (ip), vehicle: saline with Tween-80): 115 % of control and 124 % of control | T/C (dose: 200.0 mg/kg/injection, schedule: Q04DX003 (ip), vehicle: saline with Tween-80): 115 % of control

O=CNCNC=O
T/C [4]: 95 % of control | T/C [5]: 90 % of control | T/C [6]: 99 % of control

CC(CCC(=O)O)(c1ccc(OC(=O)Nc2ccc([N+](=O)[O-])cc2)cc1)c1ccc(OC(=O)Nc2ccc([N+](=O)[O-])cc2)cc1
T/C [7]: 111 % of control | T/C [8]: 96 % of control | T/C [9]: 93 % of control

COc1ccc2c(c1)CCC(c1nc3ccc(C)cc3[nH]c1=O)C2=O (stereo unspecified)
T/C [10]: 103 % of control | T/C [11]: 108 % of control

Cc1c(COC(=O)NC(C)C)c(COC(=O)NC(C)C)c2n1CSC2
T/C (dose: 6.25 mg/kg/injection, schedule: Q01DX005 (ip), vehicle: Klucel + Tween-80): 154 % of control | T/C (dose: 25.0 mg/kg/injection, schedule: Q01DX005 (ip), vehicle: Klucel + Tween-80): 169 % of control and 173 % of control

COc1ccc2c(c1OC(C)=O)C1=CC(OC(C)=O)=CCC13CCN(C)C3C2 (stereo unspecified)
T/C [12]: 102 % of control | T/C [13]: 111 % of control | T/C [14]: 99 % of control

CCOC(=O)C1(C)Sc2ccccc2N=C1c1ccccc1 (stereo unspecified)
T/C (dose: 60.0 mg/kg/injection, schedule: Q01DX005 (ip), vehicle: saline + Tween-80 + alcohol): 98 % of control | T/C (dose: 120.0 mg/kg/injection, schedule: Q01DX005 (ip), vehicle: saline + Tween-80 + alcohol): 93 % of control | T/C (dose: 240.0 mg/kg/injection, schedule: Q01DX005 (ip), vehicle: saline + Tween-80 + alcohol): 89 % of control

CCOC(=O)CCC(=O)Nc1ccccc1C#N
T/C [4]: 102 % of control | T/C [5]: 93 % of control | T/C [6]: 102 % of control

CCOC(=O)Nc1ccc(C2SCCN2C(=O)NC)cc1 (stereo unspecified)
T/C [10]: 109 % of control | T/C [11]: 103 % of control | T/C [15]: 100 % of control

CC(C)(CO)NO
T/C [12]: 106 % of control | T/C [13]: 103 % of control | T/C [14]: 104 % of control

COC1=CCC2=C(CC[C@H]3[C@H]2CCP3C)C1 (stereo partly specified)
T/C [7]: 101 % of control | T/C [8]: 111 % of control | T/C [9]: 103 % of control

Cc1cccc(N2CC3CC4C=CC3(C2)O4)c1 (stereo unspecified)
T/C (dose: 60.0 mg/kg/injection, schedule: Q01DX005 (ip), vehicle: Klucel (hydroxypropylcellulose) (HPC)): 96 % of control | T/C (dose: 120.0 mg/kg/injection, schedule: Q01DX005 (ip), vehicle: Klucel (hydroxypropylcellulose) (HPC)): 96 % of control | T/C (dose: 240.0 mg/kg/injection, schedule: Q01DX005 (ip), vehicle: Klucel (hydroxypropylcellulose) (HPC)): 96 % of control

COc1c(O)ccc([N+](=O)[O-])c1OC
T/C (dose: 12.5 mg/kg/injection, schedule: Q01DX009 (ip), vehicle: other): 96 % of control | T/C (dose: 25.0 mg/kg/injection, schedule: Q01DX009 (ip), vehicle: other): 98 % of control | T/C (dose: 50.0 mg/kg/injection, schedule: Q01DX009 (ip), vehicle: other): 105 % of control | T/C (dose: 100.0 mg/kg/injection, schedule: Q01DX009 (ip), vehicle: other): 102 % of control | T/C (dose: 200.0 mg/kg/injection, schedule: Q01DX009 (ip), vehicle: other): 97 % of control

CCOC(=O)CC(=O)Nc1sc(CC)cc1C(=O)OCC
T/C [10]: 100 % of control | T/C [11]: 94 % of control

CC(C)(C)C(=Nc1ccccc1)OC(c1ccccc1)(C(F)(F)F)C(F)(F)F
T/C (dose: 100.0 mg/kg/injection, schedule: Q04DX002 (ip), vehicle: Klucel (hydroxypropylcellulose) (HPC)): 105 % of control | T/C (dose: 200.0 mg/kg/injection, schedule: Q04DX002 (ip), vehicle: Klucel (hydroxypropylcellulose) (HPC)): 101 % of control | T/C (dose: 400.0 mg/kg/injection, schedule: Q04DX002 (ip), vehicle: Klucel (hydroxypropylcellulose) (HPC)): 90 % of control

Cc1ccc2c(C)c3c(ccc4ccccc43)c[n+]2c1
T/C (dose: 2.5 mg/kg/injection, schedule: Q04DX003 (ip), vehicle: other): 103 % of control | T/C (dose: 5.0 mg/kg/injection, schedule: Q04DX003 (ip), vehicle: other): 101 % of control | T/C (dose: 10.0 mg/kg/injection, schedule: Q04DX003 (ip), vehicle: other): 100 % of control | T/C (dose: 20.0 mg/kg/injection, schedule: Q04DX003 (ip), vehicle: other): 104 % of control

C=C(C)C12CC(C)C34OC(CCCCCCCCCCC)(OC1C3C1OC1(CO)C(O)C1(O)C(=O)C(C)=CC14C)O2 (stereo unspecified)
T/C (dose: 0.05 mg/kg/injection, schedule: Q01DX009 (ip), vehicle: distilled water + Tween-80): 99 % of control and 100 % of control | T/C (dose: 0.06 mg/kg/injection, schedule: Q01DX009 (ip), vehicle: other): 100 % of control | T/C (dose: 0.1 mg/kg/injection, schedule: Q01DX009 (ip), vehicle: distilled water + Tween-80): 100 % of control and 96 % of control | T/C (dose: 0.12 mg/kg/injection, schedule: Q01DX009 (ip), vehicle: other): 104 % of control | T/C (dose: 0.2 mg/kg/injection, schedule: Q01DX009 (ip), vehicle: distilled water + Tween-80): 103 % of control and 96 % of control | T/C (dose: 0.4 mg/kg/injection, schedule: Q01DX009 (ip), vehicle: distilled water + Tween-80): 105 % of control and 119 % of control | T/C (dose: 25.0 micrograms/kg/injection, schedule: Q01DX009 (ip), vehicle: other): 112 % of control | T/C (dose: 50.0 micrograms/kg/injection, schedule: Q01DX009 (ip), vehicle: other): 112 % of control

C=C1C(=O)O[C@@H]2[C@H]1CC[C@H](C)[C@]1(O)CCC(=O)[C@@]21C
T/C (dose: 12.5 mg/kg/injection, schedule: Q01DX009 (ip), vehicle: Klucel (hydroxypropylcellulose) (HPC)): 112 % of control | T/C (dose: 25.0 mg/kg/injection, schedule: Q01DX009 (ip), vehicle: Klucel (hydroxypropylcellulose) (HPC)): 114 % of control | T/C (dose: 44.0 mg/kg/injection, schedule: Q01DX009 (ip), vehicle: Klucel (hydroxypropylcellulose) (HPC)): 115 % of control | T/C [16]: 117 % of control | T/C (dose: 67.0 mg/kg/injection, schedule: Q01DX009 (ip), vehicle: Klucel (hydroxypropylcellulose) (HPC)): 117 % of control | T/C [17]: 117 % of control | T/C (dose: 150.0 mg/kg/injection, schedule: Q01DX009 (ip), vehicle: Klucel (hydroxypropylcellulose) (HPC)): 122 % of control

CCCCCCCCCCCCC[N+]1([O-])CCCCC1
T/C [18]: 95 % of control | T/C (dose: 25.0 mg/kg/injection, schedule: Q01DX009 (ip), vehicle: saline): 92 % of control | T/C [4]: 87 % of control and 89 % of control

OC1(c2ccccc2)c2cccc(Cl)c2C(O)(c2ccccc2)c2c(Cl)cccc21 (stereo unspecified)
T/C [1]: 99 % of control | T/C [2]: 99 % of control | T/C [3]: 97 % of control

O=C(Sc1ccc(Cl)cc1)N1CCN(C(=O)Sc2ccc(Cl)cc2)CC1
T/C [16]: 92 % of control | T/C [17]: 90 % of control | T/C (dose: 200.0 mg/kg/injection, schedule: Q01DX009 (ip), vehicle: Klucel (hydroxypropylcellulose) (HPC)): 94 % of control

SC1(S)CN2CCC1CC2
T/C (dose: 6.25 mg/kg/injection, schedule: Q01DX009 (ip), vehicle: saline): 104 % of control | T/C [18]: 100 % of control

CC(=O)Oc1ccc(C2COc3cc(OC(C)=O)c(OC(C)=O)cc3C2)cc1 (stereo unspecified)
T/C [10]: 104 % of control | T/C [11]: 104 % of control | T/C [15]: 104 % of control

O=C1C(=Cc2cccnc2)C(=O)c2ccccc21
T/C [10]: 106 % of control | T/C [11]: 111 % of control
